Laboratory results from ChEMBL document CHEMBL5131537 (J Med Chem, 2022).

What was measured:
[1] = system: Human immunodeficiency virus 1; test: Antiviral activity against HIV-1 IIIB harboring reverse transcriptase Y181C mutant infected in human MT4 cells by MTT assay; format: functional, organism-based; details: Human immunodeficiency virus 1, IIIB
[2] = system: Human immunodeficiency virus 1; test: Antiviral activity against HIV-1 IIIB harboring reverse transcriptase E138K mutant infected in human MT4 cells by MTT assay; format: functional, organism-based; details: Human immunodeficiency virus 1, IIIB
Cytochrome P450 1A2 = target: T1, Cytochrome P450 1A2 (Homo sapiens, UniProt P05177); test: Inhibition of CYP1A2 in human liver microsomes using phenacetin as substrate incubated for 15 to 45 mins in presence of NADPH
T1 sequence (P05177 whole entry): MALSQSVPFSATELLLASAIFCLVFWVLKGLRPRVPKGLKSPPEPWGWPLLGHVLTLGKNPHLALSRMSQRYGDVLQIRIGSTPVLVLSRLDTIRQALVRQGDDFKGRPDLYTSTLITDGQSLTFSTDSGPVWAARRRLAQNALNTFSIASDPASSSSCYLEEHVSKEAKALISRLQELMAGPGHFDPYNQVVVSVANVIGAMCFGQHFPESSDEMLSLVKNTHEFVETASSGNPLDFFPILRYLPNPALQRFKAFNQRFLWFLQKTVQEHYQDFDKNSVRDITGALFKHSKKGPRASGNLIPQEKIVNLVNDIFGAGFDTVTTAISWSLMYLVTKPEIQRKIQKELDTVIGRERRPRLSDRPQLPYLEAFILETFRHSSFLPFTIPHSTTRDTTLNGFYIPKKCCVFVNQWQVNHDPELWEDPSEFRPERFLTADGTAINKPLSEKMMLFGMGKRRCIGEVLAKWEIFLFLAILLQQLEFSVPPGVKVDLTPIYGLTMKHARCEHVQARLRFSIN

Cytochrome P450 2C19 = Cytochrome P450 2C19 (Homo sapiens, UniProt P33261); test: Inhibition of CYP2C19 in human liver microsomes using S-mephenytoin as substrate incubated for 15 to 45 mins in presence of NADPH
Sequence of Cytochrome P450 2C19 (P33261 whole entry): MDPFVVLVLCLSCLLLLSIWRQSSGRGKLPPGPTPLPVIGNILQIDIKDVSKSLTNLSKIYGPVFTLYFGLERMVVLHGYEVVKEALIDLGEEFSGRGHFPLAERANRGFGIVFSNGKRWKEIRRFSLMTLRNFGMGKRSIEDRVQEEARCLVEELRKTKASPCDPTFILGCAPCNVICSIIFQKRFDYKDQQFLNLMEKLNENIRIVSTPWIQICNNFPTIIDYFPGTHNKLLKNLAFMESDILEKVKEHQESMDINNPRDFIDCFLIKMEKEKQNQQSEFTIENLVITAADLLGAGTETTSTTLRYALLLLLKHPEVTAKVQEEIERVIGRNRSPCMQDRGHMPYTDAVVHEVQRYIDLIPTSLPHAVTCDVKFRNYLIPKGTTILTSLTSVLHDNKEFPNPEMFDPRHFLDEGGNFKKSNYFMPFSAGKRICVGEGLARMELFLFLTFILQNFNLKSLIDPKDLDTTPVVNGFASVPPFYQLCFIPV

Cytochrome P450 2D6 = Cytochrome P450 2D6 (Homo sapiens, UniProt P10635); test: Inhibition of CYP2D6 in human liver microsomes using dextromethorphan as substrate incubated for 15 to 45 mins in presence of NADPH
Sequence of Cytochrome P450 2D6 (P10635 whole entry): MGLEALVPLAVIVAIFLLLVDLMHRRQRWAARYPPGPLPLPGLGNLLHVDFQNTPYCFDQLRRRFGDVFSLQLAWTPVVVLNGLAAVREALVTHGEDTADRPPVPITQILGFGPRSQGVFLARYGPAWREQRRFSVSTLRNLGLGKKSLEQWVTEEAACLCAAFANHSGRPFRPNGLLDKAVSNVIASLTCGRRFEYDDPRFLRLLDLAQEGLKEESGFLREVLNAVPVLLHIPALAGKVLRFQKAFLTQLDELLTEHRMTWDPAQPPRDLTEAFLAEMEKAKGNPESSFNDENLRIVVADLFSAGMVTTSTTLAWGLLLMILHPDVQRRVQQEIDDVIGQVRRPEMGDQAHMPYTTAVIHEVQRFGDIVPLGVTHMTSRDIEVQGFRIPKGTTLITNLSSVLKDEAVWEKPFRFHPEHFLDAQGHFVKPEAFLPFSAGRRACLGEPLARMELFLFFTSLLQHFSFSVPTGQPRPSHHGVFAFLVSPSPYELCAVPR

[3] = Cmax in Sprague-Dawley rat at 5 mg/kg, po measured after 0.083 to 24 hrs by LC-MS analysis; format: ADME, organism-based; parameters: dose 5 mg/kg, time 0.083-24 hrs, route po; details: in vivo
[4] = AUC (0 to t) in Sprague-Dawley rat at 5 mg/kg, po measured after 0.083 to 24 hrs by LC-MS analysis; format: ADME, organism-based; parameters: dose 5 mg/kg, time upper 24 hrs, time lower 0.083 hrs, route po; details: in vivo
[5] = Clearance in Sprague-Dawley rat at 1 mg/kg, iv measured after 0.083 to 24 hrs by LC-MS analysis; format: ADME, organism-based; details: in vivo, time 0.083-24 hrs
[6] = Clearance in Sprague-Dawley rat at 5 mg/kg, po measured after 0.083 to 24 hrs by LC-MS analysis; format: ADME, organism-based; details: in vivo, time 0.083-24 hrs
[7] = Acute toxicity in 12 hr fasted male CD-1(ICR) mouse assessed as pathological damage in liver at 2 g/kg, IG administered as single dose measured after 14 days by H and E staining based analysis; format: tissue-based; details: in vivo, po, 2000 mg/kg, 336 h, time 14 day
[8] = Acute toxicity in 12 hr fasted female CD-1(ICR) mouse assessed as pathological damage in brain at 2 g/kg, IG administered as single dose measured after 14 days by H and E staining based analysis; format: tissue-based; details: in vivo, po, 2000 mg/kg, 336 h, time 14 day
[9] = system: Human immunodeficiency virus 1; test: microbe, parasite or virus in culture; details: Human immunodeficiency virus 1, IIIB, MT4
Description: Antiviral activity against HIV-1 IIIB harboring reverse transcriptase Y188L mutant infected in human MT4 cells by MTT assay

COc1cc(-c2ccc(C#N)cc2)ccc1Oc1cc(N)nc(Nc2ccc(C#N)cc2)n1
EC50 [1]: 29 nM
EC50 [2]: 9 nM
IC50 (Cytochrome P450 1A2): > 50000 nM
IC50 (Cytochrome P450 2C19): 4510 nM
IC50 (Cytochrome P450 2D6): > 50000 nM
Cmax [3]: 44.8 ng/mL
AUC(0-t) [4]: 116 ng·h/mL
clearance [5]: 51.6 mL/min/kg
CL/F [6]: 675 mL/min/kg
Activity [7]: Non-Toxic
Activity [8]: Non-Toxic
EC50 [9]: 570 nM
